Reference: patent publication US9249129B2, “Morpholino substituted urea derivatives as mTOR inhibitors” (CELLZOME LIMITED, priority 2010, dated 2016)
Where two headings read alike, the source gives them in different places.

Columns and labels:
Format in all cases: binding
[1] = target: T1, mTOR (Homo sapiens, UniProt P42345); experiment: mTOR kinobeads assay (dot blot detection)
T1 construct: endogenous in cells; host or cells: Jurkat cells (ATCC TIB-152, clone E6-1), lysate
Procedure, shortened: (§1)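 Jurkat cell lysate (5 mg/ml protein) was incubated with test compounds and kinobeads (immobilized phenylthiazole and phenylmorpholin-chromen ligands) for 2 h in the cold with shaking. Bead-bound kinase was SDS-eluted and quantified by antibody dot blot with infrared detection. IC50 values came from dose-response curves.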

[2] = target: T2, DNA-dependent protein kinase (DNA-PK) (Homo sapiens, UniProt P78527); experiment: kinobeads assay, DNA-PK (dot blot detection)
T2 construct: endogenous in cells; host or cells: Jurkat cells (ATCC TIB-152, clone E6-1), lysate
Procedure, shortened: as §1

[3] = target: T3, kinases (kinome) (Homo sapiens, UniProt O60885); experiment: kinobeads assay with mass spectrometry detection of kinases (kinase selectivity profile); settings: BRD4 (Atypical), IPI00440727
T3 construct: determined in kinobeads assays with mass spectrometry detection of kinases as described previously; endogenous in cells; host or cells: cell lysate
From the text: (§2) The protein kinase complement of the human genome (the kinome) was described previously (Manning et al., 2002. Science 298(5600):1912-1934). Sequence accession numbers are defined by the International Protein Index (IPI) (Kersey et al., 2004. Proteomics 4(7):1985-1988).

[4] = target: T4, kinases (kinome) (Homo sapiens, UniProt P07948); experiment: as above; settings: LYN (TK), IPI00298625
T4 construct: determined in kinobeads assays with mass spectrometry detection of kinases as described previously; endogenous in cells; host or cells: cell lysate
From the text: as §2

[5] = target: T5, kinases (kinome) (Homo sapiens, UniProt P29597); experiment: as above; settings: TYK2 (TK), IPI00022353
T5 construct: determined in kinobeads assays with mass spectrometry detection of kinases as described previously; endogenous in cells; host or cells: cell lysate
From the text: as §2

[6] = target: T6, kinases (kinome) (Homo sapiens, UniProt P42684); experiment: as above; settings: ARG (TK), IPI00329488
T6 construct: determined in kinobeads assays with mass spectrometry detection of kinases as described previously; endogenous in cells; host or cells: cell lysate
From the text: as §2

[7] = target: T7, kinases (kinome) (Homo sapiens, UniProt P49674); experiment: as above; settings: CK1e (CK1), IPI00027729
T7 construct: determined in kinobeads assays with mass spectrometry detection of kinases as described previously; endogenous in cells; host or cells: cell lysate
From the text: as §2

[8] = target: T8, kinases (kinome) (Homo sapiens, UniProt Q14289); experiment: as above; settings: PYK2 (TK), IPI00029702
T8 construct: determined in kinobeads assays with mass spectrometry detection of kinases as described previously; endogenous in cells; host or cells: cell lysate
From the text: as §2

[9] = target: T9, kinases (kinome) (Homo sapiens, UniProt Q14680); experiment: as above; settings: MELK (CAMK), IPI00006471
T9 construct: determined in kinobeads assays with mass spectrometry detection of kinases as described previously; endogenous in cells; host or cells: cell lysate
From the text: as §2

[10] = target: T10, kinases (kinome) (Homo sapiens, UniProt Q15059); experiment: as above; settings: BRD3 (Atypical), IPI00014266
T10 construct: determined in kinobeads assays with mass spectrometry detection of kinases as described previously; endogenous in cells; host or cells: cell lysate
From the text: as §2

[11] = target: kinases (kinome) (Homo sapiens, UniProt Q15418); experiment: as above; settings: RSK3 (AGC), IPI00477982
From the text: as §2

[12] = target: T11, kinases (kinome) (Homo sapiens, UniProt Q9Y4K4); experiment: as above; settings: KHS1 (STE), IPI00294842
T11 construct: determined in kinobeads assays with mass spectrometry detection of kinases as described previously; endogenous in cells; host or cells: cell lysate
From the text: as §2

[13] = Table 2, Jurkat cell lysate, read-out: Inhibition values (IC50) mTor
[14] = Table 4, read-out: Inhibition values (IC50) mTOR
[15] = Table 2, Jurkat cell lysate, read-out: Inhibition values (IC50) DNAPK
[16] = Table 4, read-out: Inhibition values (IC50) DNAPK

T2 sequence (P78527 whole entry): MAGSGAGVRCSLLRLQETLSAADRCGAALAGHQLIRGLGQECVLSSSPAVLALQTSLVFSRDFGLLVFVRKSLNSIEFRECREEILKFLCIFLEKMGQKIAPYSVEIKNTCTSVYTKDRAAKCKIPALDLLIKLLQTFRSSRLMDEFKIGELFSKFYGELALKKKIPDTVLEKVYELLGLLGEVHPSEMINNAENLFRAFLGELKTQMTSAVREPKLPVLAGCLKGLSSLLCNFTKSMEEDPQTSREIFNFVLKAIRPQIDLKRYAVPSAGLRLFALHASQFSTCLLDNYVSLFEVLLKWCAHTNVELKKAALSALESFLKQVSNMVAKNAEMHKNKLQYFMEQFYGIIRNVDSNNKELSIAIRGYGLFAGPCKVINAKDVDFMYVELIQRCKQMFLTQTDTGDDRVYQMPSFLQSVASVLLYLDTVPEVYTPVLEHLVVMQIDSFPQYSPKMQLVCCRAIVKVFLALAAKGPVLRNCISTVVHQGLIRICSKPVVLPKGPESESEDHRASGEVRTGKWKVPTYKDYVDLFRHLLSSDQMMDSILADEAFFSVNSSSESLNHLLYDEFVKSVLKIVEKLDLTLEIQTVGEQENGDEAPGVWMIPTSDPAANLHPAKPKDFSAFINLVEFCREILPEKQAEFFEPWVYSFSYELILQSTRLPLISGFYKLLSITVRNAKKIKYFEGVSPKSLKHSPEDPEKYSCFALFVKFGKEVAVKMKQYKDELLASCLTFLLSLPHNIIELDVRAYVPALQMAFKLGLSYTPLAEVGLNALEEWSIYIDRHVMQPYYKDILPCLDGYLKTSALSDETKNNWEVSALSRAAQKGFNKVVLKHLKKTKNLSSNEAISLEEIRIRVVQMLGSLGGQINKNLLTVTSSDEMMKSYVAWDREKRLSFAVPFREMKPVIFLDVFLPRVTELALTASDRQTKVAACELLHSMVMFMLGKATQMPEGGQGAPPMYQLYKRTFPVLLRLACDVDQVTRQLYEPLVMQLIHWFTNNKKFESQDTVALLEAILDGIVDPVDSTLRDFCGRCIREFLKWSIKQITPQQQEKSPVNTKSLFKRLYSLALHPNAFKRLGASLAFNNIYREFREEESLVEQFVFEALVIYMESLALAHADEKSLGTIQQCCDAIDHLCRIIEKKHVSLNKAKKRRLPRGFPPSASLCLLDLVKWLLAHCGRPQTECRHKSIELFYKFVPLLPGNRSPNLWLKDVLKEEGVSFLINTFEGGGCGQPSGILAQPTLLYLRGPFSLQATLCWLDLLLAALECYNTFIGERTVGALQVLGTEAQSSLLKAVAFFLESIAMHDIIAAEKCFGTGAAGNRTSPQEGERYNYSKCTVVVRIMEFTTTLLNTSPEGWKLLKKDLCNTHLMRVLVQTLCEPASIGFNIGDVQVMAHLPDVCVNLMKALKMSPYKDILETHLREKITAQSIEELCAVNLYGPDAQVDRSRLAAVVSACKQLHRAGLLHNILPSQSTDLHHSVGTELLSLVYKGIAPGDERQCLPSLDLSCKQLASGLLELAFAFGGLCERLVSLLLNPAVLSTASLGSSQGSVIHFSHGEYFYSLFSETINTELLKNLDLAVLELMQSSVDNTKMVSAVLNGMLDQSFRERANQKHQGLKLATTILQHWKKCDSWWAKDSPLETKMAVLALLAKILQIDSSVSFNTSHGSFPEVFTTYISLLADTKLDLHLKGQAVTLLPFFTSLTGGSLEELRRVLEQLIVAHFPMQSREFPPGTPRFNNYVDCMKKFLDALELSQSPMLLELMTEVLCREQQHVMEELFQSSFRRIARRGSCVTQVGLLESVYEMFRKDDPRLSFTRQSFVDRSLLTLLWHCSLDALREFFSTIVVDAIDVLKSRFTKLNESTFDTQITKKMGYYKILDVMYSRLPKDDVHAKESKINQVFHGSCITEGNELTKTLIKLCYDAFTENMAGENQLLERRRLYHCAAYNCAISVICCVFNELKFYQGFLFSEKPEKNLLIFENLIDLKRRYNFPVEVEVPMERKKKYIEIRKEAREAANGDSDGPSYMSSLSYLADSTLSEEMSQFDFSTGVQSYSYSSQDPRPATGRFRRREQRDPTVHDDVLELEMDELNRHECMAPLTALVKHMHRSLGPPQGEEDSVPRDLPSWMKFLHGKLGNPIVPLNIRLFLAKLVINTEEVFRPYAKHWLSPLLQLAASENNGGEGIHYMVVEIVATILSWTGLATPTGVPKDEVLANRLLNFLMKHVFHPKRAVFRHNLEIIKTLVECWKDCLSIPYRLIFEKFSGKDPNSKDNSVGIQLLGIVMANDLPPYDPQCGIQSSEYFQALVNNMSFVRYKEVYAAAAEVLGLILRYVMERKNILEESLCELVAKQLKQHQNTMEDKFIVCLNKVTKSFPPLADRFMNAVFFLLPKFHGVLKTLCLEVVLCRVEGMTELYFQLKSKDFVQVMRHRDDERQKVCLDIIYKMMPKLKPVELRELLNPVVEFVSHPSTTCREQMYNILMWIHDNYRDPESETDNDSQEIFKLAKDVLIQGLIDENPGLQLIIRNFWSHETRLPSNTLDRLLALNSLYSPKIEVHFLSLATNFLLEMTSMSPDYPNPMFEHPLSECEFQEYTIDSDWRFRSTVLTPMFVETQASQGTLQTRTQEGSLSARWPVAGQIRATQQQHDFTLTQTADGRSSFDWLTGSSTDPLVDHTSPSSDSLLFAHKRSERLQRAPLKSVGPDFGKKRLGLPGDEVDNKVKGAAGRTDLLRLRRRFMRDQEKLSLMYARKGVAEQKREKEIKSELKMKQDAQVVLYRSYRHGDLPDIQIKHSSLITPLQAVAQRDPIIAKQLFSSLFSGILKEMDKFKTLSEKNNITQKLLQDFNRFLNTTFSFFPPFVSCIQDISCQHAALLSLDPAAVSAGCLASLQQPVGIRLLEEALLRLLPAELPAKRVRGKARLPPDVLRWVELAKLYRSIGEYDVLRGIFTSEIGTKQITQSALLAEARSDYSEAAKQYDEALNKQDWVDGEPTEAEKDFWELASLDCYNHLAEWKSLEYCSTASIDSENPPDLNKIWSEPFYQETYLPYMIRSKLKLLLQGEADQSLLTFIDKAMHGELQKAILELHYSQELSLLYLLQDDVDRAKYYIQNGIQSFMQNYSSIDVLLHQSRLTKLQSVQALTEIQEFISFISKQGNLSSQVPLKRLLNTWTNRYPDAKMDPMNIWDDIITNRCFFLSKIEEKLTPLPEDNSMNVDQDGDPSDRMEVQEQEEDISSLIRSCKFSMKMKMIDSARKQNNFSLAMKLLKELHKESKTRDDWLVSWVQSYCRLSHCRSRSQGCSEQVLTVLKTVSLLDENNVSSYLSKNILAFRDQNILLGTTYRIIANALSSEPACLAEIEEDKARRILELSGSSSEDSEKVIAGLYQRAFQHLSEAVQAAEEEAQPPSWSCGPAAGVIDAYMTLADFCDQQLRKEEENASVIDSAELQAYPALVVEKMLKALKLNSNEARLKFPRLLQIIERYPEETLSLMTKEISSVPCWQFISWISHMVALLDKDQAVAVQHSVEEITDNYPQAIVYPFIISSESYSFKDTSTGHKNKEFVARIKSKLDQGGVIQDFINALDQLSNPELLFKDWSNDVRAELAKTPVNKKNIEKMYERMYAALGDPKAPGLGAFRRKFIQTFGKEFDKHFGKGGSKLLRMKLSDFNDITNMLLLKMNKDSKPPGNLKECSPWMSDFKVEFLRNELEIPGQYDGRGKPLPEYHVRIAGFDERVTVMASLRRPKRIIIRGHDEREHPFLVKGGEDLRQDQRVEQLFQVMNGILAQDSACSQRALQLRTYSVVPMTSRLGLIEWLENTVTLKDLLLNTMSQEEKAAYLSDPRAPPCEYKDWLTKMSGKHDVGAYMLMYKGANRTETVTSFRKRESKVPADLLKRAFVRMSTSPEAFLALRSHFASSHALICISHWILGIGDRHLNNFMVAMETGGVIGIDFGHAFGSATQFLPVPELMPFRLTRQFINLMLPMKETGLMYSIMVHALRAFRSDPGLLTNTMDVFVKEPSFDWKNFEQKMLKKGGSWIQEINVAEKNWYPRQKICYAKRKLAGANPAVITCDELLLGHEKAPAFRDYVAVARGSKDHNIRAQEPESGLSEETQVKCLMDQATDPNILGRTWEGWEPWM
Sequence of kinases (kinome) (Homo sapiens, UniProt Q15418) (Q15418 whole entry): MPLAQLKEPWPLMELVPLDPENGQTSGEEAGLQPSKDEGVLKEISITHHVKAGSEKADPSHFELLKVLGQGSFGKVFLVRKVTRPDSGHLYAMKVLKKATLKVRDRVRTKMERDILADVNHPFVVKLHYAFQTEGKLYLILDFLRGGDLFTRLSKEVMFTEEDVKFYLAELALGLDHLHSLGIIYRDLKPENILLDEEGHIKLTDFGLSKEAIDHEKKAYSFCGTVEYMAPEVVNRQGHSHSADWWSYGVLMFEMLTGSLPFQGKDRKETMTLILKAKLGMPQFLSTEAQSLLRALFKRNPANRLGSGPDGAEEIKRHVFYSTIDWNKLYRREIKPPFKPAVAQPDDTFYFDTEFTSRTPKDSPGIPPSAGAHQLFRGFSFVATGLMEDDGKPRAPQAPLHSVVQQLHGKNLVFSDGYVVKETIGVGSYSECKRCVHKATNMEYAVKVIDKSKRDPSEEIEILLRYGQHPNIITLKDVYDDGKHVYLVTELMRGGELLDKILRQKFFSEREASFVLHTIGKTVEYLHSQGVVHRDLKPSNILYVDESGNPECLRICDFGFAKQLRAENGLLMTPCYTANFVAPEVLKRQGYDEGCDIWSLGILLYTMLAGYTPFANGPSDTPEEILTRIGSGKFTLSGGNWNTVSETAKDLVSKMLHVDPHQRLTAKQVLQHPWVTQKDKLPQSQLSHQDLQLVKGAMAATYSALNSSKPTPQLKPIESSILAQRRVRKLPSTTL

Compound	IC50 [1, 13] [µM]	IC50 [1, 14] [µM]	IC50 [2, 15] [µM]	IC50 [2, 16] [µM]	IC50 [3] [µM]	IC50 [4] [µM]	IC50 [5] [µM]	IC50 [6] [µM]	IC50 [7] [µM]	IC50 [8] [µM]	IC50 [9] [µM]	IC50 [10] [µM]	IC50 [11] [µM]	IC50 [12] [µM]
C[C@H]1COCCN1c1cc(-c2ccc(F)nc2)nc(-c2ccc(NC(=O)NC3CC3)cc2)n1 [Example 21, (S)-1-cyclopropyl-3-(4-(4-(6-fluoropyridin-3-yl)-6-(3-methylmorpholino)pyrimidin-2-yl)phenyl)urea]	0.1 to 1	0.1 to 1	≥ 10	≥ 10	–	–	–	–	–	–	–	–	–	–
C[C@H]1COCCN1c1cc(-c2cncc(F)c2)nc(-c2ccc(NC(=O)NC3CC3)cc2)n1 [Example 23, (S)-1-cyclopropyl-3-(4-(4-(5-fluoropyridin-3-yl)-6-(3-methylmorpholino)pyrimidin-2-yl)phenyl)urea]	0.1 to 1	0.1 to 1	≥ 10	≥ 10	–	–	–	–	–	–	–	–	–	–
C[C@H]1COCCN1c1nc(-c2ccc(NC(=O)NCCCO)cc2)cc(-c2cc(F)ccc2S(C)(=O)=O)n1 [Example 64, (S)-1-(4-(6-(5-fluoro-2-(methylsulfonyl)phenyl)-2-(3-methylmorpholino)pyrimidin-4-yl)phenyl)-3-(3-hydroxypropyl)urea]	0.1 to 1	0.1 to 1	≥ 10	≥ 10	–	–	–	–	–	–	–	–	–	–
O=C(Nc1ccncc1)Nc1ccc(-c2nccc(N3CC4CCC(C3)O4)n2)cc1 [Example 61, 1-(4-(4-(8-oxa-3-azabicyclo[3.2.1]octan-3-yl)pyrimidin-2-yl)phenyl)-3-(pyridin-4-yl)urea]	0.1 to 1	0.1 to 1	≥ 10	1 to 10	–	–	–	–	–	–	–	–	–	–

Results, then the compound that gave them:

IC50 [1, 13] [µM]	IC50 [1, 14] [µM]	IC50 [2, 15] [µM]	IC50 [2, 16] [µM]	IC50 [3] [µM]	IC50 [4] [µM]	IC50 [5] [µM]	IC50 [6] [µM]	IC50 [7] [µM]	IC50 [8] [µM]	IC50 [9] [µM]	IC50 [10] [µM]	IC50 [11] [µM]	IC50 [12] [µM]	Compound
0.1 to 1	0.1 to 1	≥ 10	≥ 10	> 10	> 10	> 10	> 10	> 10	> 10	> 10	> 10	> 10	> 10	C[C@H]1COCCN1c1cc(-c2ccccn2)nc(-c2ccc(NC(=O)NCCO)cc2)n1 [Example 43, (S)-1-(2-hydroxyethyl)-3-(4-(4-(3-methylmorpholino)-6-(pyridin-2-yl)pyrimidin-2-yl)phenyl)urea]
0.1 to 1	0.1 to 1	≥ 10	≥ 10	–	–	–	–	–	–	–	–	–	–	CCNC(=O)Nc1ccc(-c2cc(-c3cc(F)ccc3S(C)(=O)=O)nc(N3CCOC[C@@H]3C)n2)cc1 [Example 2, (S)-1-ethyl-3-(4-(6-(5-fluoro-2-(methylsulfonyl)phenyl)-2-(3-methylmorpholino)pyrimidin-4-yl)phenyl)urea]
0.1 to 1	0.1 to 1	≥ 10	≥ 10	> 10	> 10	> 10	> 10	> 10	> 10	> 10	> 10	> 10	> 10	C[C@H]1COCCN1c1nc(-c2ccc(NC(=O)NC3CC3)cc2)cc(-c2cc(F)ccc2S(C)(=O)=O)n1 [Example 40, (S)-1-cyclopropyl-3-(4-(6-(5-fluoro-2-(methylsulfonyl)phenyl)-2-(3-methylmorpholino)pyrimidin-4-yl)phenyl)urea]
0.1 to 1	0.1 to 1	≥ 10	≥ 10	–	–	–	–	–	–	–	–	–	–	C[C@H]1COCCN1c1cc(-c2ccccn2)nc(-c2ccc(NC(=O)NC3CC3)cc2)n1 [Example 42, (S)-1-cyclopropyl-3-(4-(4-(3-methylmorpholino)-6-(pyridin-2-yl)pyrimidin-2-yl)phenyl)urea]
0.1 to 1	0.1 to 1	≥ 10	≥ 10	–	–	–	–	–	–	–	–	–	–	C[C@H]1COCCN1c1ccnc(-c2ccc(NC(=O)Nc3ccncc3)cc2)n1 [Example 60, (S)-1-(4-(4-(3-methylmorpholino)pyrimidin-2-yl)phenyl)-3-(pyridin-4-yl)urea]
